Measurements as given in patent US20100248960A1, “Method For Protecting Cereals From Being Infected By Fungi” (BASF SE, priority 2007, published 2010).

What was measured:
Puccinia recondita [1] = assay: Curative control of brown rust on wheat caused by Puccinia recondita; assay type: in vivo; conditions: assessed after 8 days, efficacy in % of untreated control (90% infection), read-out: Observed activity (% infection); for inhibition at 0.063 ppm: 192 h; for inhibition at 0.25 ppm: sprayed 1 day after inoculation
Protocol: (§1) The active compounds were prepared as a stock solution comprising 25 mg of N-(trans-2-bicycloprop-2-ylphenyl)-3-difluoromethyl-1-methyl-1H-pyrazole-4-carboxamide (Ia), which was made up to 10 ml using a mixture of acetone and/or dimethyl sulfoxide and the emulsifier Wettol® EM31 (wetting agent having an emulsifying and dispersing action based on ethoxylated alkylphenols) in a ratio by volume of solvent/emulsifier of 99:1. The mixture was then made up to 100 ml with water. This stock solution was diluted with the solvent/emulsifier/water mixture described to give the concentration of active compound stated below. Epoxiconazole and metconazole were employed as a commercial finished formulation and diluted with water to the stated concentration of active compound.
(§2) The visually determined percentages of infected leaf areas were converted into efficacies in % of the untreated control.
(§3) The efficacy (E) is calculated as follows using Abbot's formula: […]
(§4) αcorresponds to the fungicidal infection of the treated plants in % and βcorresponds to the fungicidal infection of the untreated (control) plants in %
(§5) An efficacy of 0 means that, the infection level of the treated plants corresponds to that of the untreated control plants; an efficacy of 100 means that the treated plants were not infected.
(§6) The expected efficacies of active compound combinations were determined using Colby's formula (Colby, S.R. “Calculating synergistic and antagonistic responses of herbicide combinations”, Weeds, 15, pp. 20-22, 1967) and compared with the observed efficacies.
(§7) Colby's formula: E=x+y−x•y/100 • E expected efficacy, expressed in % of the untreated control, when using the mixture of the active compounds A and B at the concentrations a and b • x efficacy, expressed in % of the untreated control, when using the active compound A at the concentration a • y efficacy, expressed in % of the untreated control, when using the active compound B at the concentration b
The first two developed leaves of pot-grown wheat seedling were dusted with spores of Puccinia recondita. To ensure the success the artificial inoculation, the plants were transferred to a humid chamber without light and a relative humidity of 95 to 99% and 20 to 22° C. for 24 h. The next day the plants were sprayed to run-off with an aqueous suspension, containing the concentration of active ingredient as described below. The plants were allowed to air-dry. Then the trial plants were cultivated for 8 days in a greenhouse chamber at 22-26° C. and a relative humidity between 65 and 70%. The extent of fungal attack on the leaves was visually assessed as % diseased leaf area. The expected efficacies of mixtures of active compounds were determined using Colby's formula and compared with the observed efficacies.

Puccinia recondita [2] = assay: Preventative control of brown rust on wheat caused by Puccinia recondita; assay type: in vivo; conditions: efficacy in % of untreated control (90% infection), read-out: Observed activity (% infection); for inhibition at 1 ppm: sprayed 1 day before inoculation
Protocol: as §1, §2, §3, §4, §5, §6, §7
The first two developed leaves of pot-grown wheat seedling were sprayed to run-off with an aqueous suspension, containing the concentration of active ingredient as described below. The next day the plants were inoculated with spores of Puccinia recondita. To ensure the success the artificial inoculation, the plants were transferred to a humid chamber without light and a relative humidity of 95 to 99% and 20 to 22° C. for 24 h. Then the trial plants were cultivated for 6 days in a greenhouse chamber at 22-26° C. and a relative humidity between 65 and 70%. The extent of fungal attack on the leaves was visually assessed as % diseased leaf area.
The expected efficacies of mixtures of active compounds were determined using Colby's formula and compared with the observed efficacies.

SMILES	inhibition at 0.063 ppm (Puccinia recondita [1]) [%]	inhibition at 0.25 ppm (Puccinia recondita [1]) [%]	inhibition at 0.25 ppm (Puccinia recondita [2]; 0.25 ppm) [%]	inhibition at 1 ppm (Puccinia recondita [2]) [%]	inhibition at 0.063 ppm (Puccinia recondita [2]; 0.063 ppm) [%]
Cn1cc(C(=O)Nc2ccccc2[C@@H]2C[C@H]2C2CC2)c(C(F)F)n1 [Compound (Ia), N-(trans-2-bicycloprop-2-ylphenyl)-3-difluoromethyl-1-methyl-1H-pyrazole-4-carboxamide]	0	0	0	22	–
CC1(C)CCC(Cc2ccc(Cl)cc2)C1(O)Cn1cncn1 (centres unmarked) [metconazole]	–	44	–	0	0
Fc1ccc([C@]2(Cn3cncn3)O[C@H]2c2ccccc2Cl)cc1 (racemic) [epoxiconazole]	22	–	–	–	–
